Measured values reported in ChEMBL document CHEMBL1134175, “Nipecotic and iso-nipecotic amides as potent and selective somatostatin subtype-2 receptor agonists” (Bioorg Med Chem Lett, 2001).

Tests used:
[1] = target: T1, Somatostatin receptor type 2 (Homo sapiens, UniProt P30874); assay: Binding affinity to human somatostatin 2 receptor
[2] = target: Somatostatin receptor type 3 (Homo sapiens, UniProt P32745); assay: Binding affinity to hsst3 was determined
[3] = target: Somatostatin receptor type 5 (Homo sapiens, UniProt P35346); assay: Binding affinity to hsst5 was determined
Sequence of Somatostatin receptor type 5 (P35346 whole entry): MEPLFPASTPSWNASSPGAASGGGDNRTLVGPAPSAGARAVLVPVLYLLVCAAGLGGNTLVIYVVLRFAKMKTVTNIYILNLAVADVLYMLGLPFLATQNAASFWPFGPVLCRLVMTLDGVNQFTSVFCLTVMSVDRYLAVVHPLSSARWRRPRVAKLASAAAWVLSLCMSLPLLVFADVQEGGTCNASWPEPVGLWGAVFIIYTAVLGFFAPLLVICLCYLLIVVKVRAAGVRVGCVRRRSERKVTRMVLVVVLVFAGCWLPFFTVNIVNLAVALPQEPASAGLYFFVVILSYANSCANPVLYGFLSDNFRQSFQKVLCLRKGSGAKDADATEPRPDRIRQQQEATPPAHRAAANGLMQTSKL

[4] = target: T1, Somatostatin receptor type 2; assay: Binding affinity to Somatostatin receptor type 2 was determined
[5] = Ratio of binding affinity of h5 to that of binding affinity of h2

Sequence of Somatostatin receptor type 3 (P32745 whole entry): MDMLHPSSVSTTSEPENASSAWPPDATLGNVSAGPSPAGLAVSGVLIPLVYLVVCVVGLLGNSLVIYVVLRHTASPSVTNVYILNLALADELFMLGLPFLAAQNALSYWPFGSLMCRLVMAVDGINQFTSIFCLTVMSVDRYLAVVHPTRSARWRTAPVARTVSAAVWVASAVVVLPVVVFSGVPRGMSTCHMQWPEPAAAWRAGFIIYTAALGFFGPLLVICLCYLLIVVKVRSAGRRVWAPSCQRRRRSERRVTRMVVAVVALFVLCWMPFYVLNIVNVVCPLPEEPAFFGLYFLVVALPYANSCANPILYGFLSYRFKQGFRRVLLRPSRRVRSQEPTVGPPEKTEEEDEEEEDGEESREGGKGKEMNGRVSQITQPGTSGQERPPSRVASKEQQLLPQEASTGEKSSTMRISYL
T1 sequence (P30874 whole entry): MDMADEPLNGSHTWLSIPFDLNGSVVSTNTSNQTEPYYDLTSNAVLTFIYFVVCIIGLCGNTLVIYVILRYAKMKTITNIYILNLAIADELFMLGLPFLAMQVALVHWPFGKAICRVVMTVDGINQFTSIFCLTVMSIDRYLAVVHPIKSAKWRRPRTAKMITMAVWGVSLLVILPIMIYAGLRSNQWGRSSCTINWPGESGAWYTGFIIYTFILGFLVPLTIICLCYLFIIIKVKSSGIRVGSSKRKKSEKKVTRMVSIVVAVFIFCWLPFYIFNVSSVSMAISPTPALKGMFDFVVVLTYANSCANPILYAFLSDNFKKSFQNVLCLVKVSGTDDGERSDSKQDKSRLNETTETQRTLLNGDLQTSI

| Ki [1] [nM] | Structure (SMILES) | also measured |
| --- | --- | --- |
| 35 | CC(C)S(=O)(=O)N1CCCC(C(=O)NC(C(=O)N[C@@H](CCCCN)C(=O)OC(C)(C)C)[C@@H](C)c2c[nH]c3ccccc23)C1 (stereo not given in full) | – |
| 5 | C[C@@H](c1c[nH]c2ccccc12)C(NC(=O)C1CCCN(Cc2cccc(F)c2)C1)C(=O)N[C@@H](CCCCN)C(=O)OC(C)(C)C (stereo not given in full) | – |
| 10 | COc1cccc(CN2CCCC(C(=O)NC(C(=O)N[C@@H](CCCCN)C(=O)OC(C)(C)C)[C@@H](C)c3c[nH]c4ccccc34)C2)c1 (stereo not given in full) | – |
| 10 | C[C@@H](c1c[nH]c2ccccc12)C(NC(=O)C1CCCN(C(=O)c2ccccc2)C1)C(=O)N[C@@H](CCCCN)C(=O)OC(C)(C)C (stereo not given in full) | – |
| 23 | COc1ccc(S(=O)(=O)N2CCCC(C(=O)NC(C(=O)N[C@@H](CCCCN)C(=O)OC(C)(C)C)[C@@H](C)c3c[nH]c4ccccc34)C2)cc1OC (stereo not given in full) | – |
| 11 | C[C@@H](c1c[nH]c2ccccc12)C(NC(=O)C1CCCN(C(=O)Nc2ccccc2)C1)C(=O)N[C@@H](CCCCN)C(=O)OC(C)(C)C (stereo not given in full) | – |
| 95 | CC(C)NC(=O)N1CCCC(C(=O)NC(C(=O)N[C@@H](CCCCN)C(=O)OC(C)(C)C)[C@@H](C)c2c[nH]c3ccccc23)C1 (stereo not given in full) | – |
| 4.6 | C[C@@H](c1c[nH]c2ccccc12)C(NC(=O)C1CCCN(Cc2ccccc2)C1)C(=O)N[C@@H](CCCCN)C(=O)OC(C)(C)C (stereo not given in full) | – |
| 11 | C[C@@H](c1c[nH]c2ccccc12)C(NC(=O)C1CCCN(S(=O)(=O)c2ccc(F)cc2)C1)C(=O)N[C@@H](CCCCN)C(=O)OC(C)(C)C (stereo not given in full) | – |
| 14 | C[C@@H](c1c[nH]c2ccccc12)C(NC(=O)C1CCCN(S(=O)(=O)c2cccs2)C1)C(=O)N[C@@H](CCCCN)C(=O)OC(C)(C)C (stereo not given in full) | – |
| 85 | C[C@@H](c1c[nH]c2ccccc12)C(NC(=O)C1CCCN(C(=O)c2cccnc2)C1)C(=O)N[C@@H](CCCCN)C(=O)OC(C)(C)C (stereo not given in full) | – |

The next lines start with the compound.

| Structure (SMILES) | Ki [1] [nM] | also measured |
| --- | --- | --- |
| C[C@@H](c1c[nH]c2ccccc12)C(NC(=O)C1CCCN(Cc2ccc3c(c2Cl)OCO3)C1)C(=O)N[C@@H](CCCCN)C(=O)OC(C)(C)C (stereo not given in full) | 12 | – |
| CC(C)S(=O)(=O)N1CCC(C(=O)NC(C(=O)N[C@@H](CCCCN)C(=O)OC(C)(C)C)[C@@H](C)c2c[nH]c3ccccc23)CC1 (stereo not given in full) | – | Ki [2]: 3750 nM; Ki [3]: > 10000 nM; Ki [4]: 120 nM; Ratio [5]: > 83 |
| COC(=O)[C@H](Cc1ccccc1)NC(=O)N1CCCC(C(=O)NC(C(=O)N[C@@H](CCCCN)C(=O)OC(C)(C)C)[C@@H](C)c2c[nH]c3ccccc23)C1 (stereo not given in full) | 8.6 | – |
| C[C@@H](c1c[nH]c2ccccc12)C(NC(=O)C1CCCN(C(=O)Cc2cc(F)cc(F)c2)C1)C(=O)N[C@@H](CCCCN)C(=O)OC(C)(C)C (stereo not given in full) | 2.3 | – |
| C[C@@H](c1c[nH]c2ccccc12)C(NC(=O)C1CCCN(Cc2cccc(F)c2F)C1)C(=O)N[C@@H](CCCCN)C(=O)OC(C)(C)C (stereo not given in full) | 5.7 | – |
| C[C@@H](c1c[nH]c2ccccc12)C(NC(=O)C1CCCN(C(=O)C(O)(c2ccccc2)c2ccccc2)C1)C(=O)N[C@@H](CCCCN)C(=O)OC(C)(C)C (stereo not given in full) | 2.8 | – |
| C[C@@H](c1c[nH]c2ccccc12)C(NC(=O)C1CCCN(C(=O)C(c2ccccc2)c2ccccc2)C1)C(=O)N[C@@H](CCCCN)C(=O)OC(C)(C)C (stereo not given in full) | 5 | – |
| C[C@@H](c1c[nH]c2ccccc12)C(NC(=O)C1CCCN(C(c2ccccc2)c2ccccc2)C1)C(=O)N[C@@H](CCCCN)C(=O)OC(C)(C)C (stereo not given in full) | 31 | – |
| C[C@@H](c1c[nH]c2ccccc12)C(NC(=O)C1CCCNC1)C(=O)N[C@@H](CCCCN)C(=O)OC(C)(C)C (stereo not given in full) | 178 | – |
| C[C@@H](c1c[nH]c2ccccc12)C(NC(=O)C1CCCN(Cc2ccccc2-c2ccccc2)C1)C(=O)N[C@@H](CCCCN)C(=O)OC(C)(C)C (stereo not given in full) | 21 | – |
| C[C@@H](c1c[nH]c2ccccc12)C(NC(=O)C1CCCN(C(=O)NC2CCCCC2)C1)C(=O)N[C@@H](CCCCN)C(=O)OC(C)(C)C (stereo not given in full) | 7.2 | – |
| CC(C)C(=O)N1CCC(C(=O)NC(C(=O)N[C@@H](CCCCN)C(=O)OC(C)(C)C)[C@@H](C)c2c[nH]c3ccccc23)CC1 (stereo not given in full) | – | Ki [2]: 5250 nM; Ki [3]: 2860 nM; Ki [4]: 15 nM; Ratio [5]: 190 |
| C[C@@H](c1c[nH]c2ccccc12)C(NC(=O)C1CCCN(Cc2ccc3ccccc3c2)C1)C(=O)N[C@@H](CCCCN)C(=O)OC(C)(C)C (stereo not given in full) | 17 | – |
| C[C@@H](c1c[nH]c2ccccc12)C(NC(=O)C1CCCN(C(=O)c2ccc3[nH]cnc3c2)C1)C(=O)N[C@@H](CCCCN)C(=O)OC(C)(C)C (stereo not given in full) | 85 | – |
| C[C@@H](c1c[nH]c2ccccc12)C(NC(=O)C1CCN(Cc2ccccc2)CC1)C(=O)N[C@@H](CCCCN)C(=O)OC(C)(C)C (stereo not given in full) | – | Ki [3]: 333 nM; Ki [4]: 2.5 nM; Ratio [5]: 133 |
| CC(=O)Nc1cccc(C(=O)N2CCCC(C(=O)NC(C(=O)N[C@@H](CCCCN)C(=O)OC(C)(C)C)[C@@H](C)c3c[nH]c4ccccc34)C2)c1 (stereo not given in full) | 47 | – |
| C[C@@H](c1c[nH]c2ccccc12)C(NC(=O)C1CCCN(C(=O)c2ccc3c(c2)OCO3)C1)C(=O)N[C@@H](CCCCN)C(=O)OC(C)(C)C (stereo not given in full) | 36 | – |
| C[C@@H](c1c[nH]c2ccccc12)C(NC(=O)C1CCCN(C(=O)Cc2ccc3c(c2)OCO3)C1)C(=O)N[C@@H](CCCCN)C(=O)OC(C)(C)C (stereo not given in full) | 10 | – |
| CC(C)CC(=O)N1CCCC(C(=O)NC(C(=O)N[C@@H](CCCCN)C(=O)OC(C)(C)C)[C@@H](C)c2c[nH]c3ccccc23)C1 (stereo not given in full) | 23 | – |
| COC(=O)c1cccc(CN2CCCC(C(=O)NC(C(=O)N[C@@H](CCCCN)C(=O)OC(C)(C)C)[C@@H](C)c3c[nH]c4ccccc34)C2)c1 (stereo not given in full) | 11 | – |
| COc1cccc(NC(=O)N2CCCC(C(=O)NC(C(=O)N[C@@H](CCCCN)C(=O)OC(C)(C)C)[C@@H](C)c3c[nH]c4ccccc34)C2)c1 (stereo not given in full) | 9 | – |
| C[C@@H](c1c[nH]c2ccccc12)C(NC(=O)C1CCCN(Cc2ccc(F)c(F)c2)C1)C(=O)N[C@@H](CCCCN)C(=O)OC(C)(C)C (stereo not given in full) | 2.9 | – |
| C[C@@H](c1c[nH]c2ccccc12)C(NC(=O)C1CCN(C(=O)c2ccccc2)CC1)C(=O)N[C@@H](CCCCN)C(=O)OC(C)(C)C (stereo not given in full) | – | Ki [2]: 2660 nM; Ki [3]: 416 nM; Ki [4]: 0.5 nM; Ratio [5]: 832 |
